Each structure is given as a SMILES string. Where two headings read alike, the source gives them in different places.

The target in assay [1] is T1, PBP4 (Pseudomonas aeruginosa, UniProt Q9HZG1).
T1 construct: gene PA3047; native full-length protein in intact P. aeruginosa PAO1 cells, Bocillin-FL labelled
In words: Bocillin-FL competition in whole cells. To be noted: intact PAO1 cells, 30 min incubation, covalent. Type of assay: cell-based. The source says: Bocillin-FL competition in whole cells on PBP4

In assay [2] the target is T2, PBP2 (Pseudomonas aeruginosa, UniProt G3XCV7).
T2 construct: gene pbpA; native full-length protein in intact P. aeruginosa PAO1 cells, Bocillin-FL labelled
T2 sequence (G3XCV7 1-646): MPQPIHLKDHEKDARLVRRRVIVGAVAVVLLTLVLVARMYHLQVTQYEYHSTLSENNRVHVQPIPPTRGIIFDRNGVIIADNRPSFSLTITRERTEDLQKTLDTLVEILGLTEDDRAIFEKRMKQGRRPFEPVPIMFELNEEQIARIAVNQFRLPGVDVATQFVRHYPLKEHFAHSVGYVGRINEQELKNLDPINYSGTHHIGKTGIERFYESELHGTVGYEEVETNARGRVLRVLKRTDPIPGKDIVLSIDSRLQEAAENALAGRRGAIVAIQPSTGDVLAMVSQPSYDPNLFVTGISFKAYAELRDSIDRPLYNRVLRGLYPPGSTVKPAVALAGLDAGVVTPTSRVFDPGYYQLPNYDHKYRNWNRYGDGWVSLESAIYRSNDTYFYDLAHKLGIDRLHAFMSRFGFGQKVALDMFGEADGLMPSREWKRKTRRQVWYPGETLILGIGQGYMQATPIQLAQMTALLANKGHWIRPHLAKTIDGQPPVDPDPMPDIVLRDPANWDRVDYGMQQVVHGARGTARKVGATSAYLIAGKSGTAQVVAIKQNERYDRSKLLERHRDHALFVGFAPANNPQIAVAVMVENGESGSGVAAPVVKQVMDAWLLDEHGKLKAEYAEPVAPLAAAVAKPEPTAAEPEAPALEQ
In words: Bocillin-FL competition in whole cells. The format is cell-based. To be noted: intact PAO1 cells, 30 min incubation, covalent. The source says: Bocillin-FL competition in whole cells on PBP2

Assay [3] concerns the target T3, PBP3 (Pseudomonas aeruginosa, UniProt G3XD46). The experiment in a line: Bocillin-FL competition in whole cells. To be noted: intact PAO1 cells, 30 min incubation, covalent. Set-up: gene ftsI; native full-length protein in intact P. aeruginosa PAO1 cells, Bocillin-FL labelled. Type of assay: cell-based.
Assay [4] has as its target T4, PBP5 (Pseudomonas aeruginosa, UniProt G3XD74).
T4 construct: gene dacC; native full-length protein in intact P. aeruginosa PAO1 cells, Bocillin-FL labelled
In words: Bocillin-FL competition in whole cells. To be noted: intact PAO1 cells, 30 min incubation, covalent. The format is cell-based.

The target of assay [5] is T3, PBP3. In words: biochemical. More on the design: gene ftsI; native protein in lysed PAO1; species or system Pseudomonas aeruginosa PAO1; Bocillin FL labelling competition of PBPs in lysed P. aeruginosa PAO1. From the text: Abstract Objectives The main objective of the present work was to dissect the interplay between penicillin-binding protein (PBP) occupancy, ampC transcriptional dynamics, and β-lactamase activity in Pseudomonas aeruginosa. Methods Using wild-type PAO1 and isogenic LMW-PBP knockout mutants (PAOΔdacB, PAOΔdacBdacC, and PAOΔdacBdacCpbpG), we assessed ampC induction following exposure to 18 β-lactams and β-lactamase inhibitors. PBP binding (IC50) was quantified via Bocillin-FL labelling. AmpC mRNA levels were measured by qRT-PCR, and β-lactamase activity was determined in crude extracts, periplasmic and extracellular fractions using nitrocefin and cefalotin substrates. […] Binding to PBP4 is a recognized trigger for ampC induction.

Assay [6] addresses T5, AmpC (Pseudomonas aeruginosa, UniProt P24735).
T5 construct: native chromosomal enzyme in crude extract of constitutive AmpC-overproducing triple LMW-PBP knockout
In words: inhibition of nitrocefin / cefalotin hydrolysis in crude extract. The format is biochemical. To be noted: crude extract of PAOΔdacBdacCpbpG; 500 mg/L in Results (Methods: 50 and 100 μM); both substrates.

Where [7] appears, read: read-out: Drug mg/L^a / DOR / AVI.
[8] abbreviates: read-out: Drug mg/L^a / CAR / TZB.
The mark [9] stands for this setting: read-out: Drug mg/L^a / MEM / FOX.
The mark [10] stands for this setting: read-out: Drug mg/L^a / ETP / CAZ.
Where [11] appears, read: read-out: Drug mg/L^a / PIP / CLV.
The mark [12] stands for this setting: read-out: Drug mg/L^a / MEC / SUL.
[13] abbreviates: read-out: Drug mg/L^a / TIC / REL.

T1 sequence (Q9HZG1 entry or part of it): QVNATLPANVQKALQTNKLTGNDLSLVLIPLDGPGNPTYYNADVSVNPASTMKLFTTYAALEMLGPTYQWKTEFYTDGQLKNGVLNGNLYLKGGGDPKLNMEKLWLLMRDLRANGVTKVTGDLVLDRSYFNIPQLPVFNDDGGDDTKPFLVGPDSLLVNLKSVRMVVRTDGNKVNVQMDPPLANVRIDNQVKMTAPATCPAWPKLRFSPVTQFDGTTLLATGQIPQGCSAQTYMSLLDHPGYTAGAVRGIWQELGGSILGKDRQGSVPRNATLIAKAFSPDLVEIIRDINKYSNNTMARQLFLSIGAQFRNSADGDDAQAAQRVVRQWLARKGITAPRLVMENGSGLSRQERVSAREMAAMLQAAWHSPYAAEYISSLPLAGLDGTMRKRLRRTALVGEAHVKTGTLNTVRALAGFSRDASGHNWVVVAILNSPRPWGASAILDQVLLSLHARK
T4 sequence (G3XD74 entry or part of it): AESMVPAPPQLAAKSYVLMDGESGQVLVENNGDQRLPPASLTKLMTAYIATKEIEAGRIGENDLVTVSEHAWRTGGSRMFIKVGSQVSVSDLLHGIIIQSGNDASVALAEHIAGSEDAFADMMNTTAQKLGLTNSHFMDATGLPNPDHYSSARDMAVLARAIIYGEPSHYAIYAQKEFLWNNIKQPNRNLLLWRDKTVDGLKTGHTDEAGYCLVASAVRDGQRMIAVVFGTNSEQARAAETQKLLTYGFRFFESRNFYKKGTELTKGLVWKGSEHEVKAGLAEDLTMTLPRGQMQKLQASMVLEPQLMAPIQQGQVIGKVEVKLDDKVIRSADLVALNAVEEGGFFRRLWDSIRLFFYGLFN
T3 sequence (G3XD46 whole entry): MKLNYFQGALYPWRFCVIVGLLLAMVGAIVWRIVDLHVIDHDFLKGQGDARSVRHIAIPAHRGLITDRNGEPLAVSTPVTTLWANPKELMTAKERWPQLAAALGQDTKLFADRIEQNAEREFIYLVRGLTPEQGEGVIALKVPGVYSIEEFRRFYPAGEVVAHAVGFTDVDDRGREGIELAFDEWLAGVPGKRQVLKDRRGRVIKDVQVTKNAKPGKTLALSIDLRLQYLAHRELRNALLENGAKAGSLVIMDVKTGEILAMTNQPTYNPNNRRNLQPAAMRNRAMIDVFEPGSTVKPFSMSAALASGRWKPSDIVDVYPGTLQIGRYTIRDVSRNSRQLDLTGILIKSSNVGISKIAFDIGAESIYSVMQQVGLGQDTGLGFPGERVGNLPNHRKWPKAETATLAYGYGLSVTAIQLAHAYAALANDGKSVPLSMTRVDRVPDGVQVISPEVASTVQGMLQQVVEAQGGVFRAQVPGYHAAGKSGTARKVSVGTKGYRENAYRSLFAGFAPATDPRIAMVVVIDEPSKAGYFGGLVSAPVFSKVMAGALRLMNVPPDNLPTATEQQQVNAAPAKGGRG
T5 sequence (P24735 27-397): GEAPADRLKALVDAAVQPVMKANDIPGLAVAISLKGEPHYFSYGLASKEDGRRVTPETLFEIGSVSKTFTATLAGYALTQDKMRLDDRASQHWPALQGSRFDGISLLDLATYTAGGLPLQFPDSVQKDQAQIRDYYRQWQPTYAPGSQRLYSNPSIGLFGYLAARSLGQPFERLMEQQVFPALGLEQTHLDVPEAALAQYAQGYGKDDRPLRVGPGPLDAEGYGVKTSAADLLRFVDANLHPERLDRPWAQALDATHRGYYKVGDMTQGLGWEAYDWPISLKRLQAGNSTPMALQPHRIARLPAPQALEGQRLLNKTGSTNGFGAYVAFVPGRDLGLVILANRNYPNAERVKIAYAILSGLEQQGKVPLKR

With `NC(=O)[C@@H]1CC[C@@H]2CN1C(=O)N2OS(=O)(=O)O` [avibactam], the IC50 is 9.01 µM in assay [1] (setting [7]), 23.7 µM in assay [2] (setting [7]), 38.8 µM in assay [3] (setting [7]) and 12.4 µM in assay [4] (setting [7]).

With `C[C@H]1[C@H](NC(=O)/C(=N\OC(C)(C)C(=O)O)c2csc(N)n2)C(=O)N1S(=O)(=O)O` [aztreonam], the IC50 in assay [1] (read-out: Drug mg/L^a / ATM) is 3.1 µM; in assay [2] (read-out: Drug mg/L^a / ATM), 17 µM; in assay [3] (read-out: Drug mg/L^a / ATM), 1.75 µM; in assay [4] (read-out: Drug mg/L^a / ATM), 10.4 µM; in assay [5], 0.184 µM.

Turning to `CC1(C)S[C@@H]2[C@H](NC(=O)C(C(=O)O)c3ccccc3)C(=O)N2[C@H]1C(=O)O` (some centres unmarked) [carbenicillin], the IC50 in assay [2] (setting [8]) is 85.4 µM; in assay [3] (setting [8]), 9.01 µM; in assay [4] (setting [8]) it was 129 µM.

In the case of `CO/N=C(\C(=O)N[C@@H]1C(=O)N2C(C(=O)[O-])=C(C[N+]3(C)CCCC3)CS[C@H]12)c1csc(N)n1` [cefepime], the IC50 in assay [1] (read-out: IPM / FEP) was 0.52 µM; in assay [2] (read-out: IPM / FEP), 2 µM; in assay [3] (read-out: IPM / FEP), 0.437 µM.

As to `CO[C@@]1(NC(=O)Cc2cccs2)C(=O)N2C(C(=O)O)=C(COC(N)=O)CS[C@@H]21` [cefoxitin], the IC50 in assay [1] (setting [9]) was 47.7 µM; in assay [2] (setting [9]), 4750 µM; in assay [3] (setting [9]), 5390 µM; in assay [4] (setting [9]), 12.4 µM. For the same compound, in assay [5] (lysed PAO1, covalent), the “FOX IC50” value worked out at 10.7 µg/mL.

Turning to `CC(C)(O/N=C(\C(=O)N[C@@H]1C(=O)N2C(C(=O)[O-])=C(C[n+]3ccccc3)CS[C@H]12)c1csc(N)n1)C(=O)O` [ceftazidime], the IC50 in assay [1] (setting [10]) was 0.585 µM; in assay [2] (setting [10]), 2.73 µM; in assay [3] (setting [10]), 0.567 µM; in assay [5], 0.11 µM.

On to `O=C(O)[C@H]1/C(=C/CO)O[C@@H]2CC(=O)N21` [clavulanic acid], for which the IC50 was 21.8 µM in assay [1] (setting [11]), 56.2 µM in assay [2] (setting [11]), 30.5 µM in assay [3] (setting [11]) and 18.1 µM in assay [4] (setting [11]).

On to `Cc1onc(-c2ccccc2Cl)c1C(=O)N[C@@H]1C(=O)N2[C@@H]1SC(C)(C)[C@@H]2C(=O)O` [cloxacillin], for which, in assay [6], the “% reduction in hydrolysis rate at 500 mg/L” value was above 95%.

For the compound `C[C@@H](O)[C@H]1C(=O)N2C(C(=O)O)=C(S[C@@H]3CN[C@H](CNS(N)(=O)=O)C3)[C@H](C)[C@H]12` [doripenem], the IC50 in assay [1] (setting [9]) was 0.0476 µM; in assay [2] (setting [7]), 0.69 µM; in assay [3] (setting [7]) it was 1.05 µM; in assay [4] (setting [7]), 2.14 µM; in assay [5], 0.309 µM.

With `C[C@@H](O)[C@H]1C(=O)N2C(C(=O)O)=C(S[C@@H]3CN[C@H](C(=O)Nc4cccc(C(=O)O)c4)C3)[C@H](C)[C@H]12` [ertapenem], the IC50 was 0.105 µM in assay [1] (setting [10]); 0.673 µM in assay [2] (setting [10]); 1.14 µM in assay [3] (setting [10]); 1.7 µM in assay [4] (setting [10]); 0.4 µM in assay [5].

Consider `C[C@@H](O)[C@H]1C(=O)N2C(C(=O)O)=C(SCCN=CN)C[C@H]12` [imipenem], for which the IC50 in assay [1] (read-out: IPM / FEP) is 0.0334 µM; in assay [2] (read-out: IPM / FEP) it was 0.2 µM; in assay [4] (read-out: IPM / FEP) it was 0.2 µM.

As to `CC1(C)S[C@@H]2[C@H](N=CN3CCCCCC3)C(=O)N2[C@H]1C(=O)O` [mecillinam], the IC50 in assay [1] (setting [12]) is 648 µM; in assay [2] (setting [12]), 870 µM; in assay [4] (setting [12]), 1300 µM.

Regarding `C[C@@H](O)[C@H]1C(=O)N2C(C(=O)O)=C(S[C@@H]3CN[C@H](C(=O)N(C)C)C3)[C@H](C)[C@H]12` [meropenem], the IC50 was 0.0522 µM in assay [1] (setting [9]), 3.99 µM in assay [2] (setting [9]) and 3.65 µM in assay [4] (setting [9]).

With `CCN1CCN(C(=O)N[C@@H](C(=O)N[C@@H]2C(=O)N3[C@@H]2SC(C)(C)[C@@H]3C(=O)O)c2ccccc2)C(=O)C1=O` [piperacillin], the IC50 was 3.23 µM in assay [1] (setting [11]); 4.21 µM in assay [2] (setting [11]); 1.7 µM in assay [3] (setting [11]); 6.09 µM in assay [4] (setting [11]); 0.0966 µM in assay [5].

For `O=C(NC1CCNCC1)[C@@H]1CC[C@@H]2CN1C(=O)N2OS(=O)(=O)O` [relebactam], the IC50 is 24.4 µM in assay [1] (setting [13]), 17.1 µM in assay [2] (setting [13]), 12.2 µM in assay [3] (setting [13]) and 81.7 µM in assay [4] (setting [13]).

Regarding `CC1(C)[C@H](C(=O)O)N2C(=O)C[C@H]2S1(=O)=O` [sulbactam], the IC50 in assay [1] (setting [12]) was 12.4 µM; in assay [2] (setting [12]) it was 19.2 µM; in assay [3] (setting [12]), 9.09 µM; in assay [4] (setting [12]), 8.96 µM.

For `C[C@]1(Cn2ccnn2)[C@H](C(=O)O)N2C(=O)C[C@H]2S1(=O)=O` [tazobactam], the IC50 is 15.9 µM in assay [1] (setting [8]), 11.9 µM in assay [2] (setting [8]), 13.4 µM in assay [3] (setting [8]) and 15.9 µM in assay [4] (setting [8]).

With `CC1(C)S[C@@H]2[C@H](NC(=O)[C@H](C(=O)O)c3ccsc3)C(=O)N2[C@H]1C(=O)O` [ticarcillin], the IC50 in assay [2] (setting [13]) was 51.5 µM; in assay [3] (setting [13]), 6.4 µM; in assay [4] (setting [13]), 682 µM.

The values above are taken from publication PMC12802951, “Unravelling the triad of penicillin-binding proteins, β-lactamase activity, and mRNA dynamics in Pseudomonas aeruginosa AmpC induction” (Journal of Antimicrobial Chemotherapy, 2025).
